Measured values reported in publication PMC5337940, “Sansanmycin natural product analogues as potent and selective anti-mycobacterials that inhibit lipid I biosynthesis” (Nature Communications, 2017).
Values after ≈ are worked out from the molar mass of the structure shown. Like-named read-outs stand apart in the source and are kept apart here.

Tests used:
H37Rv = system: H37Rv; parameters: method as in Xie et al. 14, 15; conditions: isolated natural products; ref Xie et al. 14, 15; cited from earlier work
Mtb H37Rv = test: Resazurin reduction microplate assay, growth inhibition of Mtb H37Rv; type: cell-based, Mycobacterium tuberculosis; conditions: Mycobacterium tuberculosis, H37RV
HEK293 cells = test: Cytotoxicity counter-screen, resazurin reduction microplate assay; type: cell-based; conditions: Homo sapiens, tested up to 200 μM, read-out: MIC50 (HEK293)
Mtb MurX [1] = molecular target: T1, Mtb MurX (Mycobacterium tuberculosis, UniProt P9WMW7); test: Radiochemical (TLC) MurX-MurG coupled inhibition assay in Mtb mc2 6230 membranes; type: biochemical; conditions: for inhibition at 0.2 µM: 200 nM inhibitor, decrease in lipid II formation
T1 sequence (P9WMW7 whole entry): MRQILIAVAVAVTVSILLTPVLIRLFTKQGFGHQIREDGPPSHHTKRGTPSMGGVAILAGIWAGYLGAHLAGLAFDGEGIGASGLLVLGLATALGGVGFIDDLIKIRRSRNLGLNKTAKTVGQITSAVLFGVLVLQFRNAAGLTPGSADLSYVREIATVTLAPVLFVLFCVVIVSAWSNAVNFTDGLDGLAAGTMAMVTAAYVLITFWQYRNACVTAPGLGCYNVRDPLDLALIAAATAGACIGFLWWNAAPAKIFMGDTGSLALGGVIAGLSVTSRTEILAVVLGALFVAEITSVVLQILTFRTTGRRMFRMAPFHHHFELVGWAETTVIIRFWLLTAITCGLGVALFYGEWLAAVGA

Mtb MurX [2] = molecular target: T1, Mtb MurX; test: biochemical
in vitro [3] = type: in vitro ADME; conditions: plasma
Text: Human blood from nonidentifiable volunteer donors was sourced from the Australian Red Cross Blood Service under a supply agreement approved by the Monash Human Research Ethics Committee. Mouse blood was collected in-house under tissue harvesting protocols approved by the Monash Institute of Pharmaceutical Sciences Animal Ethics Committee. Pooled human and Swiss outbred mouse plasma samples were thawed and spiked with test compound solutions prepared in DMSO/acetonitrile/water (20:40:40) to provide a final compound concentration of 1,000 ng ml^−1 and final DMSO and acetonitrile concentrations of 0.2% and 0.4% (v/v), respectively. Plasma was vortex mixed and aliquots (50 μl) were transferred to fresh microcentrifuge tubes and incubated at 37 °C. At various time points over the 6 h incubation period, duplicate plasma samples were removed and immediately snap-frozen in dry ice. All samples were stored frozen at −80 °C until analysis by LC–MS. Samples were processed by protein precipitation using a two-fold excess of acetonitrile followed by centrifugation. Analysis of the supernate was conducted using a Waters (Milford, MA) Acquity UPLC coupled to a Waters Micromass Quattro Premier mass spectrometer operated in positive electrospray ionization mode with multiple reaction monitoring. The cone voltage was 45 V, collision energy was 30, 30 and 40 V for 25, 36 and 37, respectively, and m/z transitions were 782.30>126.06 (25), 826.32>170.16 (36) and 888.39>126.06 (37). Processed samples (3 μl) were injected onto a Supelco Ascentis Express RP Amide column (50 × 2.1 mm, 2.7 μm) and analytes eluted using a water/acetonitrile (each containing 0.05% formic acid) gradient over 4 min with a flow rate was 0.4 ml min^−1. Sample concentrations were quantitated by comparison to a calibration curve prepared in blank human or mouse plasma.

in vitro [4] = type: in vitro ADME; conditions: microsomes; for Average half-life: 0.5 μM; for half-life at 0.5 μM: Average half-life
Method: The metabolic stability was assessed by incubating each test compound (0.5 μM) in duplicate with human and mouse liver microsomes (XenoTech, Kansas City, KS) at 37 °C and 0.4 mg ml^−1 microsomal protein. The metabolic reaction was initiated by the addition of an NADPH-regenerating system and quenched at various time points over a 60 min incubation period by the addition of acetonitrile containing diazepam as internal standard. Control samples (containing no NADPH) were included and quenched at 2, 30 and 60 min to monitor for potential degradation in the absence of cofactor. Samples were centrifuged and the supernatant analysed by LCMS. Analysis was conducted using a Waters Acquity UPLC coupled to a Waters Xevo G2 QTOF mass spectrometer operated in positive electrospray ionization MS^E mode with a cone voltage of 30 V. Samples (5 μl) were injected onto an Ascentis Express Amide column (50 × 2.1 mm, 2.7 μm) and eluted using a water/acetonitrile (both containing 0.05% formic acid) gradient over 4 min at a flow rate of 0.4 ml min^−1. Degradation rate half-lives and in vitro intrinsic clearance values were determined from the first order degradation profiles.

Mtb H37Ra in THP-1 cells = test: Intracellular assay, Mtb-infected THP-1 macrophages, CFU count; conditions: read-out: IC50 intracellular anti-mycobacterial activity; THP-1 macrophages infected with Mtb (H37Ra), average of 2 independent experiments
[5] = Mtb H37Rv, read-out: MIC50 against Mtb
[6] = average of two independent experiments, each in triplicate, read-out: MIC50 Mtb H37Rv

Compound | MIC (H37Rv) (H37Rv) [µM] | MIC50 (Mtb H37Rv; [5]) [µM] | MIC50 (Mtb H37Rv; [6]) [µM] | CC50 (HEK293 cells) [nM] | IC50 (Mtb MurX [1]) [nM] | inhibition at 0.2 µM (Mtb MurX [1]) [%] | IC50 (Mtb MurX [2]) [nM] | half-life at 1000 ng/ml (in vitro [3]; Swiss outbred, mouse) [h] | half-life at 1000 ng/ml (in vitro [3]; human) [h] | microsomal CLint at 0.5 μM (in vitro [4]; human) [µL/min/mg] | Average half-life (in vitro [4]; human) [h] | half-life at 0.5 μM (in vitro [4]; human) [h] | microsomal CLint at 0.5 μM (in vitro [4]; mouse) [µL/min/mg] | Average half-life (in vitro [4]; mouse) [h] | half-life at 0.5 μM (in vitro [4]; mouse) [h] | IC50 (Mtb H37Ra in THP-1 cells) [nM] | IC50 (Mtb MurX [2]; read-out: IC50 Mtb MurX, fluorescence assay) [nM]
CSCC[C@H](NC(=O)N[C@@H](Cc1c[nH]c2ccccc12)C(=O)O)C(=O)N[C@H](C(=O)N/C=C1/C[C@@H](O)[C@H](n2ccc(=O)[nH]c2=O)O1)[C@H](C)N(C)C(=O)[C@@H](N)c1cccc(O)c1 [Compound 1, Sansanmycin A] | 18.5 (≈ 15.7 µg/mL) |  |  |  |  |  |  |  |  |  |  |  |  |  |  |  | 
CC(C)C[C@H](NC(=O)N[C@@H](Cc1c[nH]c2ccccc12)C(=O)O)C(=O)N[C@H](C(=O)N/C=C1/C[C@@H](O)[C@H](n2ccc(=O)[nH]c2=O)O1)[C@H](C)N(C)C(=O)[C@@H](N)c1cccc(O)c1 [Compound 2, Sansanmycin B] | 9.5 (≈ 7.9 µg/mL) |  |  |  |  |  |  |  |  |  |  |  |  |  |  |  | 
C[C@@H]([C@H](NC(=O)[C@H](CC[S+](C)[O-])NC(=O)N[C@@H](Cc1c[nH]c2ccccc12)C(=O)O)C(=O)N/C=C1/C[C@@H](O)[C@H](n2ccc(=O)[nH]c2=O)O1)N(C)C(=O)[C@@H](N)c1cccc(O)c1 (stereo partly shown) [Compound 3, Sansanmycin C] | > 36.3 |  |  |  |  |  |  |  |  |  |  |  |  |  |  |  | 
C[C@@H]([C@H](NC(=O)[C@H](CC1CCCCC1)NC(=O)N[C@@H](Cc1c[nH]c2ccccc12)C(=O)O)C(=O)NC[C@H]1C[C@@H](O)[C@H](n2ccc(=O)[nH]c2=O)O1)N(C)C(=O)CN [Compound 25] |  | 0.08 (≈ 0.0625 µg/mL) | 0.08 ± 0.02 (≈ 0.0625 µg/mL) | > 200000 | 54 | 100 | 30 | > 7 | > 7 | < 7 | > 2.67 | > 4.12 | < 7 | > 2.67 | > 4.12 | 1570 | 
C[C@@H]([C@H](NC(=O)[C@H](Cc1ccc2ccccc2c1)NC(=O)N[C@@H](Cc1c[nH]c2ccccc12)C(=O)O)C(=O)NC[C@H]1C[C@@H](O)[C@H](n2ccc(=O)[nH]c2=O)O1)N(C)C(=O)CN [Compound 36] |  | 0.18 (≈ 0.149 µg/mL) | 0.18 ± 0.02 (≈ 0.149 µg/mL) | > 200000 | 48 | 100 | 14 | > 7 | > 7 | < 7 | > 2.67 | > 4.12 | 10 | > 2.67 | 2.77 | 4330 | 
C[C@@H]([C@H](NC(=O)[C@H](CC1CCCCC1)NC(=O)N[C@@H](Cc1c[nH]c2ccccc12)C(=O)O)C(=O)NC[C@H]1C[C@@H](O)[C@H](n2ccc(=O)[nH]c2=O)O1)N(C)C(=O)[C@@H](N)Cc1cccc(O)c1 [Compound 37] |  | 0.037 (≈ 0.0329 µg/mL) | 0.037 ± 0.06 (≈ 0.0329 µg/mL) | > 200000 | 41 | 100 | 16 | > 7 | > 7 | 10 | > 2.67 | 2.9 | 7 | > 2.67 | 3.88 | 110 | 
tunicamycin [reference compound] |  |  |  |  |  |  |  |  |  |  |  |  |  |  |  |  | 189
